Experiments:
Carbonic anhydrase 4 = molecular target: T1, Carbonic anhydrase 4 (Bos taurus, UniProt Q95323)
T1 sequence (Q95323 whole entry): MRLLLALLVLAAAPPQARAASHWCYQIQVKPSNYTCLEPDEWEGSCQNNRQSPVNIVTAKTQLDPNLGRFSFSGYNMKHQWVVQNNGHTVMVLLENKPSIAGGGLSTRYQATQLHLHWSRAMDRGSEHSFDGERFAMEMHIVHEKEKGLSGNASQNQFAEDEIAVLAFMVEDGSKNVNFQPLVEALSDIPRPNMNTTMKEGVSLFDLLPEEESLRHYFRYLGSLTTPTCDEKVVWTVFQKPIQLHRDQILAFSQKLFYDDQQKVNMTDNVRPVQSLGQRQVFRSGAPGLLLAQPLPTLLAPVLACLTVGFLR
Description: Inhibitory activity against Carbonic anhydrase IV isolated from bovine lung

Carbonic anhydrase 2 = Carbonic anhydrase 2 (Homo sapiens, UniProt P00918)
Description: Inhibitory activity against human carbonic anhydrase II

Carbonic anhydrase 1 = Carbonic anhydrase 1 (Homo sapiens, UniProt P00915)
Description: Inhibitory activity against human carbonic anhydrase I (hCA I)

Oryctolagus cuniculus [1] = organism: Oryctolagus cuniculus
Description: Fall of intraocular pressure (IOP) after treatment with 50 ug into normotensive rabbit at time interval 30 min at a pH of 7

Oryctolagus cuniculus [2] = organism: Oryctolagus cuniculus; remark: listed apart in the source
Description: Fall of intraocular pressure (IOP) after treatment with 50 ug into normotensive rabbit at time interval 60 min at a pH of 7

Oryctolagus cuniculus [3] = organism: Oryctolagus cuniculus; remark: listed apart in the source
Description: Fall of intraocular pressure (IOP) after treatment with 50 ug into normotensive rabbit at time interval 90 min at a pH of 7

Oryctolagus cuniculus [4] = organism: Oryctolagus cuniculus; remark: listed apart in the source
Description: Fall of intraocular pressure (IOP) after treatment with 50 ug into normotensive rabbit at time interval 240 min at a pH of 7

Carbonic anhydrase 1, sequence (P00915 whole entry): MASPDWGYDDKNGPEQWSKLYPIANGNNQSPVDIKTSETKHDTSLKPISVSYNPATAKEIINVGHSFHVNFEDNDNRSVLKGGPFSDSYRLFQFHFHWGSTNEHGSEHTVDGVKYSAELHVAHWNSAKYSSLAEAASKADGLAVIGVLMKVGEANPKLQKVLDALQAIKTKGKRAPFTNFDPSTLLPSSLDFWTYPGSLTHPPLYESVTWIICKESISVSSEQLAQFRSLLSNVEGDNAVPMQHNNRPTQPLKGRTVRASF

Ki (Carbonic anhydrase 4) [nM]	Ki (Carbonic anhydrase 2) [nM]	Ki (Carbonic anhydrase 1) [nM]	Structure (SMILES)	Delta IOP (Oryctolagus cuniculus [1]) [mmHg]	Delta IOP (Oryctolagus cuniculus [2]) [mmHg]	Delta IOP (Oryctolagus cuniculus [3]) [mmHg]	Delta IOP (Oryctolagus cuniculus [4]) [mmHg]
9	1.7	13	CN(C)CCOCCOC(=O)c1ccc(S(=O)(=O)/N=c2/sc(S(N)(=O)=O)nn2C)cc1				
10	2.9	16	CN(C)CCOC(=O)c1cccc(S(=O)(=O)/N=c2/sc(S(N)(=O)=O)nn2C)c1				
8	2.9	15	COCCOC(=O)c1cccc(S(=O)(=O)Nc2nnc(S(N)(=O)=O)s2)c1	6	2.5	2	0
8	1.7	12	CCN(CC)CCNC(=O)c1ccc(S(=O)(=O)/N=c2/sc(S(N)(=O)=O)nn2C)cc1				
6	1.6	13	CN(C)CCOCCOC(=O)c1cccc(S(=O)(=O)Nc2nnc(S(N)(=O)=O)s2)c1	4.9	4.5	4.1	3.3
7	2.1	15	CN(C)CCOC(=O)c1cccc(S(=O)(=O)Nc2nnc(S(N)(=O)=O)s2)c1	4.5	4.9	7.1	5.7
13	1.8	15	CC(CN(C)C)OC(=O)c1ccc(S(=O)(=O)/N=c2/sc(S(N)(=O)=O)nn2C)cc1 (stereo unspecified)				
12	3.1	16	COCCOC(=O)c1ccc(S(=O)(=O)/N=c2/sc(S(N)(=O)=O)nn2C)cc1				
9	3.3	17	COCCOC(=O)c1cccc(S(=O)(=O)/N=c2/sc(S(N)(=O)=O)nn2C)c1				
8	2	15	CN(C)CCOCCOC(=O)c1cccc(S(=O)(=O)/N=c2/sc(S(N)(=O)=O)nn2C)c1				
15	5.9	73	Cn1nc(S(N)(=O)=O)s/c1=N/S(=O)(=O)c1cccc(C(=O)O)c1				
14	5.4	50	Cn1nc(S(N)(=O)=O)s/c1=N/S(=O)(=O)c1ccc(C(=O)O)cc1				
11	2.9	14	NS(=O)(=O)c1nnc(NS(=O)(=O)c2ccc(C(=O)OCCO)cc2)s1				
8	2	17	CC(CN(C)C)OC(=O)c1cccc(S(=O)(=O)Nc2nnc(S(N)(=O)=O)s2)c1 (stereo unspecified)	2.5	6.7	8.5	7.9
7	1.3	12	CN(C)CCOCCOC(=O)c1ccc(S(=O)(=O)Nc2nnc(S(N)(=O)=O)s2)cc1	2.7	3.9	5.7	6.3
10	5.2	23	Cn1nc(S(N)(=O)=O)s/c1=N/S(=O)(=O)c1cccc(C(=O)OCCO)c1				
13	5.1	68	NS(=O)(=O)c1nnc(NS(=O)(=O)c2cccc(C(=O)O)c2)s1				
12			NS(=O)(=O)c1nnc(NS(=O)(=O)c2ccccc2)s1 [BENZOLAMIDE]				
12	2.2	18	CC(CN(C)C)OC(=O)c1cccc(S(=O)(=O)/N=c2/sc(S(N)(=O)=O)nn2C)c1 (stereo unspecified)				
10	1.4	13	CC(CN(C)C)OC(=O)c1ccc(S(=O)(=O)Nc2nnc(S(N)(=O)=O)s2)cc1 (stereo unspecified)	4.8	5.9	8.2	8
14	2.4	13	CN(C)CCOC(=O)c1ccc(S(=O)(=O)/N=c2/sc(S(N)(=O)=O)nn2C)cc1				
14	4	20	Cn1nc(S(N)(=O)=O)s/c1=N/S(=O)(=O)c1ccc(C(=O)OCCO)cc1				
8	3.1	16	NS(=O)(=O)c1nnc(NS(=O)(=O)c2cccc(C(=O)OCCO)c2)s1	10.5	4.8	2.8	0.5
7	1.7	14	CCN(CC)CCNC(=O)c1cccc(S(=O)(=O)Nc2nnc(S(N)(=O)=O)s2)c1	6.5	6.9	9.1	8
10	2.8	12	COCCOC(=O)c1ccc(S(=O)(=O)Nc2nnc(S(N)(=O)=O)s2)cc1				
10	1.5	11	CN(C)CCOC(=O)c1ccc(S(=O)(=O)Nc2nnc(S(N)(=O)=O)s2)cc1	4.5	5.5	8	7.6
12	4.6	45	NS(=O)(=O)c1nnc(NS(=O)(=O)c2ccc(C(=O)O)cc2)s1				
7	1.9	16	CCN(CC)CCNC(=O)c1cccc(S(=O)(=O)/N=c2/sc(S(N)(=O)=O)nn2C)c1				
145			CC(=O)/N=c1/sc(S(N)(=O)=O)nn1C [METHAZOLAMIDE]				
